Measurements reported in US12582617B2, “Methods for treating cancer” (RADIUS PHARMACEUTICALS, INC., priority 2015, dated 2026).
Counter-ions that a name gives are not always drawn.

Experiment: Phase 1 dose escalation study: safety, treatment related AEs
Format: in vivo
Experimental: The subjects were 40-75 years old with BMI of 18.0-30 kg/m^2. Subjects having evidence of clinically relevant pathology, increased risk of stroke or of history venous thromboembolic events, or use of concomitant medication less than 14 days prior to admission to clinical research center (paracetamol allowed up to 3 days prior) were excluded.
The subjects were treated with placebo or at least one dose p.o., q.d. after a light breakfast for 7 days at dose levels of 200 mg, 500 mg, 750 mg and 1000 mg, respectively.

## CCNCCc1ccc(CN(CC)c2cc(OC)ccc2[C@@H]2CCc3cc(O)ccc3C2)cc1 [RAD1901, (6R)-6-(2-(N-(4-(2-(ethylamino)ethyl)benzyl)-N-ethylamino)-4-methoxyphenyl)-5,6,7,8-tetrahydronaphthalen-2-ol dihydrochloride]
200 mg, Gr1
  Abdominal discomfort (treatment related AE): 3 n(%)
  Abdominal distension (treatment related AE): 1 n(%)
  Abdominal pain (treatment related AE): 2 n(%)
  Diarrhoea (treatment related AE): 0 n(%)
  Dizziness (treatment related AE): 1 n(%)
  Dyspepsia (treatment related AE): 3 n(%)
  Dysphagia (treatment related AE): 0 n(%)
  Flatulance (treatment related AE): 2 n(%)
  Headache (treatment related AE): 3 n(%)
  Hiccups (treatment related AE): 1 n(%)
  Hot flush (treatment related AE): 2 n(%)
  Myalgia (treatment related AE): 2 n(%)
  Nausea (treatment related AE): 5 n(%)
  Odynophagia (treatment related AE): 2 n(%)
  Oesophageal pain (treatment related AE): 0 n(%)
  Salivary hypersecretion (treatment related AE): 2 n(%)
  Sensation of a foreign body (treatment related AE): 2 n(%)
  Vomiting (treatment related AE): 2 n(%)
200 mg, Gr2
  Abdominal discomfort (treatment related AE): 0 n(%)
  Abdominal distension (treatment related AE): 1 n(%)
  Abdominal pain (treatment related AE): 2 n(%)
  Diarrhoea (treatment related AE): 0 n(%)
  Dizziness (treatment related AE): 0 n(%)
  Dyspepsia (treatment related AE): 0 n(%)
  Dysphagia (treatment related AE): 0 n(%)
  Flatulance (treatment related AE): 0 n(%)
  Headache (treatment related AE): 0 n(%)
  Hiccups (treatment related AE): 0 n(%)
  Hot flush (treatment related AE): 0 n(%)
  Myalgia (treatment related AE): 1 n(%)
  Nausea (treatment related AE): 0 n(%)
  Odynophagia (treatment related AE): 0 n(%)
  Oesophageal pain (treatment related AE): 2 n(%)
  Salivary hypersecretion (treatment related AE): 0 n(%)
  Sensation of a foreign body (treatment related AE): 0 n(%)
  Vomiting (treatment related AE): 0 n(%)
200 mg, Gr3
  Abdominal discomfort (treatment related AE): 0 n(%)
  Abdominal distension (treatment related AE): 0 n(%)
  Abdominal pain (treatment related AE): 0 n(%)
  Diarrhoea (treatment related AE): 0 n(%)
  Dizziness (treatment related AE): 0 n(%)
  Dyspepsia (treatment related AE): 0 n(%)
  Dysphagia (treatment related AE): 0 n(%)
  Flatulance (treatment related AE): 0 n(%)
  Headache (treatment related AE): 0 n(%)
  Hiccups (treatment related AE): 0 n(%)
  Hot flush (treatment related AE): 0 n(%)
  Myalgia (treatment related AE): 0 n(%)
  Nausea (treatment related AE): 0 n(%)
  Odynophagia (treatment related AE): 0 n(%)
  Oesophageal pain (treatment related AE): 0 n(%)
  Salivary hypersecretion (treatment related AE): 0 n(%)
  Sensation of a foreign body (treatment related AE): 0 n(%)
  Vomiting (treatment related AE): 0 n(%)
500 mg, Gr1
  Abdominal discomfort (treatment related AE): 0 n(%)
  Abdominal distension (treatment related AE): 1 (7) n(%)
  Abdominal pain (treatment related AE): 3 (21) n(%)
  Diarrhoea (treatment related AE): 3 (21) n(%)
  Dizziness (treatment related AE): 2 (14) n(%)
  Dyspepsia (treatment related AE): 5 (36) n(%)
  Dysphagia (treatment related AE): 1 (7) n(%)
  Flatulance (treatment related AE): 2 (14) n(%)
  Headache (treatment related AE): 1 (7) n(%)
  Hiccups (treatment related AE): 4 (29) n(%)
  Hot flush (treatment related AE): 6 (43) n(%)
  Myalgia (treatment related AE): 0 n(%)
  Nausea (treatment related AE): 3 (21) n(%)
  Odynophagia (treatment related AE): 1 (7) n(%)
  Oesophageal pain (treatment related AE): 1 (7) n(%)
  Salivary hypersecretion (treatment related AE): 2 (14) n(%)
  Sensation of a foreign body (treatment related AE): 1 (7) n(%)
  Vomiting (treatment related AE): 1 (7) n(%)
500 mg, Gr2
  Abdominal discomfort (treatment related AE): 0 n(%)
  Abdominal distension (treatment related AE): 0 n(%)
  Abdominal pain (treatment related AE): 0 n(%)
  Diarrhoea (treatment related AE): 0 n(%)
  Dizziness (treatment related AE): 0 n(%)
  Dyspepsia (treatment related AE): 2 n(%)
  Dysphagia (treatment related AE): 2 n(%)
  Flatulance (treatment related AE): 0 n(%)
  Headache (treatment related AE): 1 n(%)
  Hiccups (treatment related AE): 0 n(%)
  Hot flush (treatment related AE): 0 n(%)
  Myalgia (treatment related AE): 1 n(%)
  Nausea (treatment related AE): 2 n(%)
  Odynophagia (treatment related AE): 1 n(%)
  Oesophageal pain (treatment related AE): 3 n(%)
  Salivary hypersecretion (treatment related AE): 0 n(%)
  Sensation of a foreign body (treatment related AE): 0 n(%)
  Vomiting (treatment related AE): 5 n(%)
500 mg, Gr3
  Abdominal discomfort (treatment related AE): 0 n(%)
  Abdominal distension (treatment related AE): 0 n(%)
  Abdominal pain (treatment related AE): 0 n(%)
  Diarrhoea (treatment related AE): 0 n(%)
  Dizziness (treatment related AE): 0 n(%)
  Dyspepsia (treatment related AE): 0 n(%)
  Dysphagia (treatment related AE): 0 n(%)
  Flatulance (treatment related AE): 0 n(%)
  Headache (treatment related AE): 0 n(%)
  Hiccups (treatment related AE): 0 n(%)
  Hot flush (treatment related AE): 0 n(%)
  Myalgia (treatment related AE): 0 n(%)
  Nausea (treatment related AE): 0 n(%)
  Odynophagia (treatment related AE): 0 n(%)
  Oesophageal pain (treatment related AE): 0 n(%)
  Salivary hypersecretion (treatment related AE): 0 n(%)
  Sensation of a foreign body (treatment related AE): 0 n(%)
  Vomiting (treatment related AE): 1 n(%)
750 mg, Gr1
  Abdominal discomfort (treatment related AE): 1 (13) n(%)
  Abdominal distension (treatment related AE): 1 (13) n(%)
  Abdominal pain (treatment related AE): 1 (13) n(%)
  Diarrhoea (treatment related AE): 0 n(%)
  Dizziness (treatment related AE): 1 (13) n(%)
  Dyspepsia (treatment related AE): 4 (50) n(%)
  Dysphagia (treatment related AE): 3 (38) n(%)
  Flatulance (treatment related AE): 1 (13) n(%)
  Headache (treatment related AE): 3 (38) n(%)
  Hiccups (treatment related AE): 2 (25) n(%)
  Hot flush (treatment related AE): 2 (25) n(%)
  Myalgia (treatment related AE): 1 (13) n(%)
  Nausea (treatment related AE): 2 (25) n(%)
  Odynophagia (treatment related AE): 0 n(%)
  Oesophageal pain (treatment related AE): 1 (13) n(%)
  Salivary hypersecretion (treatment related AE): 2 (25) n(%)
  Sensation of a foreign body (treatment related AE): 0 n(%)
  Vomiting (treatment related AE): 0 n(%)
750 mg, Gr2
  Abdominal discomfort (treatment related AE): 1 n(%)
  Abdominal distension (treatment related AE): 0 n(%)
  Abdominal pain (treatment related AE): 0 n(%)
  Diarrhoea (treatment related AE): 0 n(%)
  Dizziness (treatment related AE): 0 n(%)
  Dyspepsia (treatment related AE): 0 n(%)
  Dysphagia (treatment related AE): 1 n(%)
  Flatulance (treatment related AE): 0 n(%)
  Headache (treatment related AE): 0 n(%)
  Hiccups (treatment related AE): 0 n(%)
  Hot flush (treatment related AE): 0 n(%)
  Myalgia (treatment related AE): 0 n(%)
  Nausea (treatment related AE): 1 n(%)
  Odynophagia (treatment related AE): 0 n(%)
  Oesophageal pain (treatment related AE): 0 n(%)
  Salivary hypersecretion (treatment related AE): 0 n(%)
  Sensation of a foreign body (treatment related AE): 0 n(%)
  Vomiting (treatment related AE): 2 n(%)
750 mg, Gr3
  Abdominal discomfort (treatment related AE): 0 n(%)
